Source: PubChem BioAssay (NCI)
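Exposure lasted 48 hours, with cells grown in 96-well plates and compounds tested at five concentrations. Here, GI50 denotes the concentration required for 50% inhibition of growth. Definition used: TGI = concentration required for complete inhibition of growth.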

Legend:
Assay in all cases: DTP human tumour cell line panel, 48 h
HT29 colon = tested on: HT29 colon
NCI-H23 lung = tested on: NCI-H23 lung
HCT-116 colon = tested on: HCT-116 colon
SF-539 CNS = tested on: SF-539 CNS
SR leukemia = tested on: SR leukemia
SK-MEL-2 melanoma = tested on: SK-MEL-2 melanoma
MALME-3M melanoma = tested on: MALME-3M melanoma
IGROV1 ovarian = tested on: IGROV1 ovarian
MDA-MB-231 breast = tested on: MDA-MB-231 breast
NCI/ADR-RES ovarian = tested on: NCI/ADR-RES ovarian

Compound | TGI (HT29 colon) | TGI (NCI-H23 lung) | TGI (HCT-116 colon) | TGI (SF-539 CNS) | TGI (SR leukemia) | TGI (SK-MEL-2 melanoma) | TGI (MALME-3M melanoma) | TGI (IGROV1 ovarian) | GI50 (MDA-MB-231 breast) | TGI (MDA-MB-231 breast) | GI50 (NCI/ADR-RES ovarian) | TGI (NCI/ADR-RES ovarian) | GI50 (HT29 colon) | GI50 (NCI-H23 lung) | GI50 (HCT-116 colon) | GI50 (SF-539 CNS) | GI50 (SK-MEL-2 melanoma) | GI50 (MALME-3M melanoma) | GI50 (IGROV1 ovarian) | GI50 (SR leukemia)
Cc1cc2c(=O)cc(-c3ccc(C(=O)O)cc3)oc2c(C(=O)O)c1C | > 100 µM | > 100 µM | > 100 µM | > 100 µM | > 100 µM | > 100 µM | > 100 µM | > 100 µM |  |  |  |  |  |  |  |  |  |  |  | 
CCOC(=O)c1c2c(n3cccc(F)c13)C(=O)c1ncccc1C2=O | 5.42 µM | 3.09 µM | 3.91 µM | 1.35 µM |  | 73.7 µM | 6.77 µM | 24.9 µM | 4.14 µM | 64.7 µM | 0.436 µM | 6.82 µM | 1.34 µM | 0.173 µM | 0.317 µM | 0.157 µM | 4.81 µM | 0.541 µM | 1.6 µM | 
CC1=C(C(=O)Nc2ccc(Cl)c(Cl)c2)C(c2cccc(O)c2)NC(=S)N1 (centres undefined) |  |  | > 50 µM | 15.7 µM | 49 µM | 18.3 µM |  | 44.2 µM | 8.44 µM | 20 µM |  |  |  |  | 18.1 µM | 8.15 µM | 8 µM |  | 12.8 µM | 14.2 µM
Cc1ccc(C2CC(c3cccc(Nc4ccncc4)c3)=NN2c2ccc(Cl)cc2)cc1 (centres undefined) | 3.9 µM | 3.39 µM | 3.71 µM | 3.14 µM | 3.52 µM |  | 3.05 µM | 3.24 µM | 1.41 µM | 2.78 µM | 1.87 µM | 3.88 µM | 1.86 µM | 1.77 µM | 1.84 µM | 1.74 µM |  | 1.6 µM | 1.72 µM | 1.52 µM
O=C1C=CC(=O)N1CCCCCCCCCCN1C(=O)C=CC1=O | 26.7 µM | 31.6 µM | 12.9 µM | 30.6 µM | 41.2 µM |  | 6.49 µM | 24.7 µM | 15.7 µM | 29.5 µM | 21.2 µM | 55.9 µM | 4.67 µM | 15.6 µM | 3.6 µM | 16.4 µM |  | 2.05 µM | 7.89 µM | 6.88 µM
COC(=O)c1cc(O)ccc1NC(=O)c1ccc(O)cc1 | > 100 µM | > 100 µM | > 100 µM | > 100 µM | > 100 µM | > 100 µM | > 100 µM | > 100 µM |  |  |  |  |  |  |  |  |  |  |  | 
O=C(Cc1nc2ccccc2s1)NC12CC3CC(CC(C3)C1)C2 | > 100 µM | > 100 µM | > 100 µM | > 100 µM | > 100 µM | > 100 µM | > 100 µM |  |  |  |  |  |  |  |  |  |  |  |  | 
Cc1ccccc1C(C#N)/C(=N/NC(=O)C(=O)NN)C(=O)Nc1cccc(C(F)(F)F)c1 (centres undefined) | > 100 µM | > 100 µM | > 100 µM | > 100 µM | > 100 µM | > 100 µM | > 100 µM | > 100 µM |  |  |  |  |  |  |  |  |  |  |  | 
O=CN/C=C/c1ccccc1O | > 100 µM | > 100 µM | > 100 µM | > 100 µM | > 100 µM | > 100 µM | > 100 µM | > 100 µM |  |  |  |  |  |  |  |  |  |  |  | 
CCC1=C[C@H]2CN(CCc3c([nH]c4ccccc34)[C@@](C(=O)OC)(c3cc4c(cc3OC)N(C)[C@H]3[C@@](O)(C(=O)OC)[C@H](OC(C)=O)[C@]5(CC)[C@@H]6C[C@@H]6CN6CC[C@]43[C@@H]65)C2)C1 | 2.91 µM | > 25 µM | 2.61 µM | 0.179 µM |  | 4.64 µM | 5.82 µM | 6.77 µM | 0.0864 µM | 1.88 µM | 0.161 µM | 1.42 µM | 0.0113 µM | 0.121 µM | 0.0185 µM | 0.054 µM | 0.0752 µM | 0.249 µM | 0.144 µM | 
N#Cc1ccccc1/C=N/O | > 100 µM | > 100 µM | > 61.6 µM | > 100 µM | > 100 µM |  | > 100 µM | > 100 µM |  |  |  |  |  |  |  |  |  |  |  | 
COc1ccc(C2SC(C)C(=O)N2NC(=O)C(O)c2ccccc2)cc1 (centres undefined) | > 100 µM |  | > 100 µM | > 100 µM | > 100 µM | > 100 µM |  | > 100 µM | > 100 µM | > 100 µM | > 100 µM | > 100 µM | > 100 µM |  | > 100 µM | > 100 µM | > 100 µM |  | > 100 µM | 63 µM
O=C1CSc2ccncc2N1 | > 100 µM | > 100 µM | > 100 µM | > 100 µM | > 100 µM | > 100 µM | > 100 µM | > 100 µM |  |  |  |  |  |  |  |  |  |  |  | 
COc1cc([C@@H]2c3cc4c(cc3[C@@H](NC(=O)c3ccc([N+](=O)[O-])cc3)C3COC(=O)[C@@H]32)OCO4)cc(OC)c1O (some centres undefined) | 5.68 µM | 1.46 µM | 5.32 µM | 2.06 µM |  | 6.61 µM | 4.89 µM | 3.44 µM |  |  |  |  |  |  |  |  |  |  |  | 
Cn1c(C2CC(C)(C)c3c2c2ccccc2n3C)cc2ccccc21 (centres undefined) | > 304 µM | > 304 µM | > 304 µM | > 304 µM | > 304 µM | > 304 µM | > 304 µM | > 304 µM |  |  |  |  |  |  |  |  |  |  |  | 
C=C1CCC2C(C)(CO)C(O)CCC2(C)C1CC(O)C1=CCOC1=O (centres undefined) | > 100 µM | > 100 µM | 73.3 µM | 55 µM | 65.9 µM | > 100 µM | > 100 µM | > 100 µM |  |  |  |  |  |  |  |  |  |  |  | 
COC1(C)Cc2c(c(C)c(O)c3c2C(=O)C=C(Cl)C3=O)O1 (centres undefined) | 67 µM | > 100 µM | > 78 µM | > 100 µM | 23.5 µM | > 100 µM | 19.7 µM | > 100 µM |  | 39.9 µM |  |  |  |  |  |  |  |  |  | 
O=C(O)c1cn(C2CC2)c2cc(N3CCN(C(=O)Nc4nc(-c5ccc(Cl)cc5)cs4)CC3)c(F)cc2c1=O | > 100 µM | 39.5 µM | > 100 µM | > 100 µM |  | 6.85 µM | 5.83 µM | > 100 µM | 3.63 µM | > 100 µM | 4.21 µM | > 100 µM | 2.99 µM | 2.08 µM | 1.12 µM | 0.775 µM | 2.4 µM | 1.47 µM | 0.815 µM | 
